Legend:
VEGF receptor 3 = target: T1, VEGF receptor 3 (Homo sapiens, UniProt P35916); assay: KIRA-ELISA assay (VEGFR3 phosphotyrosine after VEGF-C stimulation); format: cell-based; conditions: NCI-H928, H928 cells stimulated by recombinant VEGF-C, read-out: inhibition percentage
T1 construct: lyse the cells and solubilize the VEGFR3; endogenous in cells; host or cells: H928 cells
Method: This assay was performed in two microtiter plates. The first plate was used to culture an adherent cell line expressing the VEGF receptor 3 and to stimulate the receptor with a test compound. The second plate was used to capture the solubilized membrane receptor, which was then probed for phosphotyrosine content with phosphotyrosine-specific antibody.
Specifically, H928 cells (2×10^5) in 100 μl medium were added to each well in a flat-bottom 24-well culture plate and cultured overnight at 37° C. in 5% CO2. After the supernatants were removed, the cells were serum-starved for 24 hours. A medium containing a test compound was added into each well and the cell culture was incubated for 30 minutes before it was stimulated by recombinant VEGF-C for 15 minutes. After the supernatants were removed, 100 μl of a lysis buffer were added into each well to lyse the cells and solubilize the VEGFR3. […] The absorbance at 450 nm and the absorbance at a reference wavelength of 650 nm (A450/650) were measured using an ELISA reader.
The inhibition efficacy of each test compound is expressed as an inhibition percentage calculated according to the following formula: 1−[(C−A)/(B−A)]. In this formula, A is the basal amount of phosphotyrosine detected in a blank control, B is the amount of phosphotyrosine detected with VEGF-C only, and C is the amount of phosphotyrosine detected with a test compound and VEGF-C.

4T1^LUC+ cells [1] = assay: In vivo assay on inhibiting spontaneous metastasis; parameters: species or system BALB/c mice; conditions: 50 mg/kg i.p. once daily; for luminescent signal intensity (metastatic tumor burden): end of the fourth week after compound treatment (sixth week after implantation), FIG. 2
Method: To investigate the effect of test compounds on distant spontaneous metastasis generated by the tumor cells, 4T1^LUC+ cells obtained by the method described in Example 188 were implanted into the right inguinal mammary fat pads of 6-week old BALB/c mice (1×10^5 cells in 100 μL PBS/mouse). After 14 days of tumor cell implantation, a single dose of 50 mg/kg body weight of a test compound or vehicle was administered intraperitoneally once daily. Compounds 2, 56, and 91 were used in this assay. Sorafenib (Nexavar®) and sunitinib (Sutent®) were also used as reference compounds.
A total of 36 mice, six for each of the six groups (i.e., 5 groups treated with test compounds and 1 vehicle group), were imaged once weekly for a period of 6 weeks after tumor cell implantation via bioluminescence imaging.
In vivo bioluminescence imaging was conducted on a cryogenically cooled IVIS™ system (Xenogen Corp., Alameda, Calif.) coupled to a data-acquisition PC running Living Image version 3.1 software (Xenogen Corp.). Before imaging, animals were anesthetized in a plastic chamber filled with 2% isofluorane/air mixture and 150 mg/mL of luciferin (potassium salt, Xenogen Corp.) and normal saline was injected (i.p.) into each mouse at a dose of 150 mg/kg body weight. This dose and route of administration has been previously shown to be optimal for studies in rodents when images were acquired between 10 and 20 minutes post-luciferin administration (Contag C H et al. 1997 Photochem Photobiol.; 66:523-531). During image acquisition, isofluorane anesthesia was maintained using a nose cone delivery system and animal body temperature was regulated using a digitally thermostated bed integrated within the IVIS™ system (Xenogen Corp., Alameda, Calif.). A gray scale body surface image was collected in the chamber under dim illumination, followed by acquisition and overlay of the pseudocolor image representing the spatial distribution of detected photon counts emerging from active luciferase within the animal. An integration time of 1 minute was used for luminescent image acquisition.
The average of the in vivo bioluminescence intensities measured on the 14th day post tumor cell implantation but before treatment with test compounds severed as a baseline, corresponding to the metastatic tumor burden of the vehicle group, as shown in FIG. 2.

4T1^LUC+ cells [2] = assay: Effects on tumor recurrence and survival rate; format: in vivo, BALB/c mice; conditions: 50 mg/kg i.p. once daily; for overall survival life span: compared with vehicle group, FIG. 4; for luminescent signal intensity after tumor resection (tumor recurrence): sustain treatment vs stop treatment, FIG. 3
Method: 4T1^LUC+ cells obtained by the method described in Example 188 were implanted into the right inguinal mammary fat pads of 6 to 8-week old female BALB/c mice (1×10^5 cells in 100 μL PBS/mouse). After 14 days of tumor cell implantation, a single dose of 50 mg/kg body weight of a test compound or vehicle (PBS) was administered intraperitoneally once daily for three weeks. Compounds 2, 56, and 91 were tested in this assay. Sorafenib (Nexavar®) and sunitinib (Sutent®) were also used as reference compounds.
At the end of three-week treatment, the orthotopically grown tumors were surgically removed from the six groups of mice (i.e., 5 groups each treated with a test compound and 1 vehicle group). Then each of the six groups (i.e., 5 groups each treated with a test compound and 1 vehicle group) were divided into two subgroups, one with no further drug treatment (denoted as “stop treatment” in FIG. 3) and the other with continued drug treatment for 35 days (denoted as the “sustain treatment” in FIG. 3).
Bioluminescent data were collected in a manner similar to that described in Example 189 above at the end of day 35 after tumor resection.

[3] = tested on: 4T1 cells / 4T1^luc+ cells; assay: Effects on tumor self-seeding; format: in vivo, BALB/c mice; conditions: 50 mg/kg orally once daily
Method: Unlabeled parental 4T1 cells were implanted into a mammary gland of 6 to 8-week old female BALB/c mice (1×10^5 cells in 100 μL PBS/mouse). After 14 days of tumor cell implantation, a single dose of 50 mg/kg body weight of a test compound or vehicle (PBS) was administered orally once daily for 2 days. Compound 56 was tested in this assay. Sunitinib (Sutent®) was used as a reference compound. Then 4T1^luc+ cells (1×10^5 cells in 100 μL PBS/mouse) were injected into the circulatory system of the mice by intracardiac injection. The mice were then administered orally with a single dose of 50 mg/kg body weight of a test compound or vehicle (PBS) once daily for 2 days.
Bioluminescent data were collected in a manner similar to that described in Example 189 above.

[4] = tested on: 4T1^LUC+ cells (murine 4T1 breast cancer); assay: In vivo assay on tumor growth inhibition; parameters: species or system BALB/c mice
Method: Compounds were tested for their efficacy in inhibiting tumor growth on murine tumor xenografts.
Murine 4T1 breast cancer cells (purchased from the American Type Culture Collection) were cultured to sub confluence in RPMI medium supplemented with 10% fetal bovine serum (GIBCO Invitrogen Corp.) at 37° C., 90% humidity and 5% CO2. The 4T1^LUC+ cells were established by the stable transfection of the firefly luciferase gene (pGL3-control, Promega Corporation) to 4T1 cells using LipofectAMINE PLUS Reagent (Life Technologies, Inc., Grand Island, N.Y.) for quantitative assessment of tumor burden in visceral organs. pcDNA3 vector (Invitrogen Co., Carlsbad, Calif.) was cotransfected for the selection by G418 (Sigma). The resulting 4T1^LUC+ colonies were isolated and cultured independently and the best expressing lines were identified based on the level of bioluminescent activity in the presence of luciferin in living cells. Highly bioluminescent clone was selected for further studies. […]
The length (i.e., the biggest diameter) and width (i.e., the smallest diameter) of the tumor was measured every 3.5 days by using a Vernier caliper. The tumor volume was then calculated as follows: volume=A×B^2×0.52, where A is the length of the tumor and B is the width of the tumor.

T1 sequence (P35916 25-1363): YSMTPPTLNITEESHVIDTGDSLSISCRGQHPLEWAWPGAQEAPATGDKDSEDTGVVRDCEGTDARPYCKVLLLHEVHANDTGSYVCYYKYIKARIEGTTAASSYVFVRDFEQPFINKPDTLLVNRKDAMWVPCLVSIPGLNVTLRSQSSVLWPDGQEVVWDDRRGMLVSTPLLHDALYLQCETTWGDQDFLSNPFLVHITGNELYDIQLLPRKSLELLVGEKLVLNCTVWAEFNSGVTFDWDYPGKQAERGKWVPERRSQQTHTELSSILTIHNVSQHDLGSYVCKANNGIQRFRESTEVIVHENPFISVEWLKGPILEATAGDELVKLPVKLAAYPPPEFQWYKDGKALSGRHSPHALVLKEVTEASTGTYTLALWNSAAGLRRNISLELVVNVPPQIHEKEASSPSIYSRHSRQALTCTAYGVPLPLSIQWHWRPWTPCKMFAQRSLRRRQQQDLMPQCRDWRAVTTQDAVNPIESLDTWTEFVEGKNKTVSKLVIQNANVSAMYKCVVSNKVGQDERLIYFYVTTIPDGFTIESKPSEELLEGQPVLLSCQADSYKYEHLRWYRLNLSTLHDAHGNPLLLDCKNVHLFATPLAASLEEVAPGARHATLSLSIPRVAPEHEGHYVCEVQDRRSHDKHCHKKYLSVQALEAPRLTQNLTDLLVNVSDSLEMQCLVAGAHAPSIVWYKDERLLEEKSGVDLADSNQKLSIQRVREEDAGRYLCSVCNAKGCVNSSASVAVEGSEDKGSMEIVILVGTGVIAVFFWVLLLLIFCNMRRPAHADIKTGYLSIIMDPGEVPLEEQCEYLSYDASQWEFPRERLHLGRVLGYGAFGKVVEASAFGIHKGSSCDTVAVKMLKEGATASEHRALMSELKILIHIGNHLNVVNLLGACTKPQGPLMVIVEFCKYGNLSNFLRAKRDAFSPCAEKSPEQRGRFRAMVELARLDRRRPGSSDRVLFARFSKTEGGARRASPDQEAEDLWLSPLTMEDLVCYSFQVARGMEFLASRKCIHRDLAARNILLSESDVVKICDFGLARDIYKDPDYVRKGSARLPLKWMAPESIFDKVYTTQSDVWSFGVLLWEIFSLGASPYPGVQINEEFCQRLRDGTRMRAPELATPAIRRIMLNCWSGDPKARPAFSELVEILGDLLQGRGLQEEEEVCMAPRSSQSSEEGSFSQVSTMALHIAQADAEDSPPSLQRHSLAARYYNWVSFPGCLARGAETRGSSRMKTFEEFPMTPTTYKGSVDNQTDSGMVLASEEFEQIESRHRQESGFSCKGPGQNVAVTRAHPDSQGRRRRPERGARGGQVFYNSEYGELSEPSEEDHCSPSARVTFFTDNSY

Row | SMILES | inhibition at 1 µM (VEGF receptor 3) [%] | inhibition of spontaneous metastasis compared with Sorafenib and sunitinib (4T1^LUC+ cells [1]) | luminescent signal intensity (metastatic tumor burden) (4T1^LUC+ cells [1]) | overall survival life span (4T1^LUC+ cells [2]) | luminescent signal intensity after tumor resection (tumor recurrence) (4T1^LUC+ cells [2]; day 35 after tumor resection) | ability in inhibiting tumor self-seeding compared with Sutent [3] | bioluminescence from the thoracic cavity ([3]; day 7 post the second 2-day drug treatment, compared with vehicle group, FIGS. 5A and 5B) | bioluminescence from the abdominal cavity compared with Sutent-treated group ([3]; day 14 post the second 2-day drug treatment) | bioluminescence from the abdominal cavity ([3]; day 14 post the second 2-day drug treatment, compared with vehicle group) | tumor growth inhibition (tumor volume) ([4]; 50 mg/kg intraperitoneally once daily from day 14 after implantation, FIG. 1) | survival rate ([4]; 50 mg/kg intraperitoneally once daily, compared with Sorafenib-treated mice) | tumor recurrence reduction compared with sunitinib (4T1^LUC+ cells [2]; day 35 after tumor resection)
1 | COC(=O)c1ccc2c(c1)nc(-c1ccc3cn(CCC(c4ccccc4)c4ccccc4)nc3c1)n2CCC1=CCCCC1 [Compound 2] | ~65 | comparable or superior to the commercial drugs | significant lower luminescent signal intensity as compared with the vehicle group | increased the overall survival life span of the treated mice as compared with those in the vehicle group | lower luminescent signal intensity as compared with the corresponding group without continuous treatment |  |  |  |  |  |  | 
2 | CCCCc1nc2cccc(-c3nc4cc(C(=O)OC)ccc4n3CC(C)C)c2n1CCCC [Compound 56] |  | comparable or superior to the commercial drugs | did not exhibit any detectable luminescent signal | increased the overall survival life span of the treated mice as compared with those in the vehicle group | lower luminescent signal intensity as compared with the corresponding group without continuous treatment | comparable or even superior ability in inhibiting tumor self-seeding to that of Sutent | much weaker bioluminescence from the thoracic cavity | weaker bioluminescence form the abdominal cavity | much weaker bioluminescence form the abdominal cavity | inhibited tumor growth almost as effectively as Sutent and Sorafenib | higher survival rate than those treated with Sorafenib | reduced tumor recurrence to a degree comparable to that of sunitinib
3 | CCCCc1nc2cccc(-c3nc4cc(C(=O)O)ccc4n3CC(C)C)c2n1CCCC [Compound 91] |  | comparable or superior to the commercial drugs | significant lower luminescent signal intensity as compared with the vehicle group | increased the overall survival life span of the treated mice as compared with those in the vehicle group | lower luminescent signal intensity as compared with the corresponding group without continuous treatment |  |  |  |  |  |  | 

— patent publication US8383662B2, “Bicyclic heteroaryl compounds” (National Chiao Tung University, priority 2006, dated 2013)
